Reference: patent US20260344661A1, “USE OF AN ALKYLETHER SULFATE FOR IMPROVING THE EFFICACY OF HERBICIDES” (BASF SE, priority 2022, published 2026)

Key:
[1] = test system: AMATA (common water hemp); assay: Greenhouse post-emergence weed control, damage vs untreated (AMATA); format: in vivo, Amaranthus tuberculatus; details: 20 DAT
Protocol: (§1) A greenhouse study was conducted to evaluate the effect of the alkylether sulfates of formula (I) and other adjuvants on the weed control efficacy of glufosinate. Seedlings of grass plants (AVEFA, ECHCG, DIGSA and SETVI) and broadleaf weeds (KCHSC, CHEAL, AMAPA, AMATA and ABUTH) were grown to a height of 3 to 20 cm, depending on the plant habit in 10×10×10 cm pots filled with sandy planting soil (Limburgerhof soil). The weeds were treated with postemergence applications of glufosinate ammonium at the respective application rates given in the following tables, either alone or combined with various amounts of the respective adjuvants.
(§2) For this, the herbicide formulation and the respective adjuvant were introduced into tap water to obtain the spray liquor. […] The spray liquor was then applied to the plant a spray volume of 200 l/ha using a sprayer (XR Teejet 110015).
(§3) The test period extended over 21 days. During this time, the plants were tended, and their response to the treatments with active compound was evaluated.
(§4) The evaluation for the damage caused by the chemical compositions was carried out using a scale from 0 to 100%, compared to the untreated control plants. Here, 0 means no damage and 100 means complete destruction of the plants.
(§5) The plants used in the greenhouse experiments belonged to the following species:
The results are summarized in the following tables 1 to 15 that show the applied doses of the individual actives as gram of active ingredient per hectare (g ai/ha), the herbicidal activity of the individual actives and of their combinations in post-emergence application assessed 14 and 28 day after treatment (DAT), respectively.

CHEAL (lambsquarter) = assay: Greenhouse post-emergence weed control, damage vs untreated (CHEAL); format: in vivo, Chenopodium album
Protocol: as §1, §2, §3, §4, §5
The results are summarized in the following tables 1 to 15 that show the applied doses of the individual actives as gram of active ingredient per hectare (g ai/ha), the herbicidal activity of the individual […]

[2] = 5 g ai/ha L-glufosinate (so in the source), no adjuvant
[3] = 37.5 g ai/ha L-glufosinate, adjuvant g ai/ha: none (CE1-B), 56 (IE2-A), 62.125 (IE2-B), 51.625 (CE2-F)
[4] = 150 g ai/ha L-glufosinate, adjuvant g ai/ha: none (CE1-B), 223 (IE2-A), 248.5 (IE2-B), 206.5 (CE2-F)
[5] = 300 g ai/ha L-glufosinate, adjuvant g ai/ha: none (CE1-B), 446 (IE2-A), 497 (IE2-B), 413 (CE2-F)

CP(=O)(O)CC[C@H](N)C(=O)O.N [CE1-B, ammonium (2S)-2-amino-4-(methylphosphinato)butyric acid]
% activity [1, 2]: 95%
% activity [1, 3]: 20%
% activity [1, 4]: 98%
% activity [1, 5]: 98%
% activity (CHEAL (lambsquarter); [2]): 0%
% activity (CHEAL (lambsquarter); [3]): 0%
% activity (CHEAL (lambsquarter); [4]): 0%
% activity (CHEAL (lambsquarter); [5]): 15%
% activity CHEAL (CHEAL (lambsquarter); g ai/ha: 42.375 solo (CE1-C), 42.375 + 66.97 combined (IE3-A/B/C, CE2-J)): 0%
% activity CHEAL (CHEAL (lambsquarter); g ai/ha: 84.75 solo (CE1-C), 84.75 + 133.94 combined (IE3-A/B/C, CE2-J)): 0%
% activity CHEAL (CHEAL (lambsquarter); g ai/ha: 169.5 solo (CE1-C), 169.5 + 267.89 combined (IE3-A/B/C, CE2-J)): 5%
% activity CHEAL (CHEAL (lambsquarter); g ai/ha: 339 solo (CE1-C), 339 + 535.77 combined (IE3-A/B/C, CE2-J)): 10%
